Measurements taken from patent US10738028B2, “Spiro three-membered ring, spiro five-membered ring peptide deformylase inhibitor and use thereof in antibacteria and anti-tumor” (priority 2016, dated 2020).

Columns and labels:
Type in all cases: cell-based
[1] = tested on: Escherichia coli (including ESBLs, non-ESBLs); assay: MIC, two-fold agar dilution (CLSI), clinical isolates
Method in brief: (§1)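 Samples are serially diluted two-fold in agar following CLSI guidance. Plates are then inoculated with the tested strains. The lowest inhibiting concentration is recorded as MIC.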

[2] = tested on: Enterococcus faecium (EFM); assay: as above
Method in brief: as §1

[3] = tested on: methicillin-sensitive Staphylococcus epidermidis (MSSE); assay: as above
Method in brief: as §1

[4] = tested on: methicillin-resistant Staphylococcus epidermidis (MRSE); assay: as above
Method in brief: as §1

[5] = tested on: Enterococcus faecalis (EFA); assay: as above
Method in brief: as §1

[6] = tested on: methicillin-resistant Staphylococcus aureus (MRSA); assay: as above
Method in brief: as §1

[7] = tested on: Moraxella catarrhalis (BCA); assay: as above
Method in brief: as §1

[8] = tested on: Streptococcus pneoumoniae (SPN); assay: as above
Method in brief: as §1

[9] = tested on: methicillin-sensitive Staphylococcus aureus (MSSA); assay: as above
Method in brief: as §1

[10] = tested on: HCT-116 colorectal cancer cell line; assay: CCK-8 proliferation inhibition; details: concentration of 30 μM, 72 hours, CCK-8
Method in brief: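 Growth inhibition is read by CCK-8 (1:10 dilution) after 72 h of compound exposure. HCT-116 cells grow in McCoy's 5A containing 10% newborn bovine serum at 2000 cells/well, with 1‰ DMSO as vehicle control.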

[11] = tested on: A549 lung cancer cell line; assay: CCK-8 proliferation inhibition; details: Homo sapiens, A549, 72 h, concentration of 30 μM
Method in brief: (§2)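 Plating at 2000 cells/well, then incubation overnight at 37° C. Next, a range of compound concentrations for 72 hours (control 1‰ DMSO). Finally, medium decanted and CCK-8 diluted 1:10 added.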

[12] = tested on: MGC-803 gastric cancer cell line; assay: CCK-8 proliferation inhibition; details: Homo sapiens, MGC-803, 72 h, concentration of 30 μM
Method in brief: as §2

[13] = tested on: BEL-7402 liver cancer cell line; assay: CCK-8 proliferation inhibition; details: concentration of 30 μM
Method in brief: as §2

## CCCC[C@H](CC(=O)NO)C(=O)N1CC2(CC2)C[C@H]1C(=O)Nc1nc(C)cs1 [Example 51, (S)-5-((R)-2-(2-(hydroxyamino)-2-oxoethyl)hexanoyl)-N-(4-methylthiazol-2-yl)-5-spiro[2.4]heptane-6-carboxamide]
[1]; clinical isolate ECO+ 15-1
  Anti-bacterial activity (MIC), strain ECO+ 15-1: 16 µg/mL
[1]; clinical isolate ECO+ 15-2
  Anti-bacterial activity (MIC), strain ECO+ 15-2: > 32 µg/mL
[1]; clinical isolate ECO+ 15-3
  Anti-bacterial activity (MIC), strain ECO+ 15-3: > 32 µg/mL
[1]; clinical isolate ECO+ 15-4
  Anti-bacterial activity (MIC), strain ECO+ 15-4: 32 µg/mL
[1]; clinical isolate ECO− 15-1
  Anti-bacterial activity (MIC), strain ECO− 15-1: > 32 µg/mL
[1]; clinical isolate ECO− 15-2
  Anti-bacterial activity (MIC), strain ECO− 15-2: > 32 µg/mL
[1]; clinical isolate ECO− 15-3
  Anti-bacterial activity (MIC), strain ECO− 15-3: > 32 µg/mL
[1]; clinical isolate ECO− 15-4
  Anti-bacterial activity (MIC), strain ECO− 15-4: > 32 µg/mL
[2]; clinical isolate EFM 15-1
  Anti-bacterial activity (MIC), strain EFM 15-1: 2 µg/mL
[2]; clinical isolate EFM 15-2
  Anti-bacterial activity (MIC), strain EFM 15-2: 2 µg/mL
[2]; clinical isolate EFM 15-3
  Anti-bacterial activity (MIC), strain EFM 15-3: 0.5 µg/mL
[2]; clinical isolate EFM 15-4
  Anti-bacterial activity (MIC), strain EFM 15-4: 2 µg/mL
[2]; clinical isolate EFM 15-5
  Anti-bacterial activity (MIC), strain EFM 15-5: 1 µg/mL
[2]; clinical isolate EFM 15-6
  Anti-bacterial activity (MIC), strain EFM 15-6: 2 µg/mL
[3]; clinical isolate MSSE 15-3
  Anti-bacterial activity (MIC), strain MSSE 15-3: 0.125 µg/mL
[3]; clinical isolate MSSE 15-4
  Anti-bacterial activity (MIC), strain MSSE 15-4: 0.125 µg/mL
[3]; clinical isolate MSSE 15-5
  Anti-bacterial activity (MIC), strain MSSE 15-5: 0.06 µg/mL
[3]; clinical isolate MSSE 15-6
  Anti-bacterial activity (MIC), strain MSSE 15-6: 0.06 µg/mL
[4]; clinical isolate MRSE 15-1
  Anti-bacterial activity (MIC), strain MRSE 15-1: 0.06 µg/mL
[4]; clinical isolate MRSE 15-2
  Anti-bacterial activity (MIC), strain MRSE 15-2: 0.25 µg/mL
[4]; clinical isolate MRSE 15-3
  Anti-bacterial activity (MIC), strain MRSE 15-3: 0.25 µg/mL
[4]; clinical isolate MRSE 15-7
  Anti-bacterial activity (MIC), strain MRSE 15-7: 0.25 µg/mL
[5]; clinical isolate EFA 15-1
  Anti-bacterial activity (MIC), strain EFA 15-1: 8 µg/mL
[5]; clinical isolate EFA 15-2
  Anti-bacterial activity (MIC), strain EFA 15-2: 8 µg/mL
[5]; clinical isolate EFA 15-3
  Anti-bacterial activity (MIC), strain EFA 15-3: 2 µg/mL
[5]; clinical isolate EFA 15-4
  Anti-bacterial activity (MIC), strain EFA 15-4: 8 µg/mL
[5]; clinical isolate EFA 15-5
  Anti-bacterial activity (MIC), strain EFA 15-5: 8 µg/mL
[5]; clinical isolate EFA 15-6
  Anti-bacterial activity (MIC), strain EFA 15-6: 8 µg/mL
[5]; clinical isolate EFA 15-9
  Anti-bacterial activity (MIC), strain EFA 15-9: 8 µg/mL
[6]; clinical isolate MRSA 15-1
  Anti-bacterial activity (MIC), strain MRSA 15-1: 0.25 µg/mL
[6]; clinical isolate MRSA 15-2
  Anti-bacterial activity (MIC), strain MRSA 15-2: 1 µg/mL
[6]; clinical isolate MRSA 15-3
  Anti-bacterial activity (MIC), strain MRSA 15-3: 0.2 µg/mL
[6]; clinical isolate MRSA 15-4
  Anti-bacterial activity (MIC), strain MRSA 15-4: 0.5 µg/mL
[7]; clinical isolate BCA 14-1
  Anti-bacterial activity (MIC), strain BCA 14-1: 2 µg/mL
[7]; clinical isolate BCA 14-4
  Anti-bacterial activity (MIC), strain BCA 14-4: 2 µg/mL
[7]; clinical isolate BCA 14-5
  Anti-bacterial activity (MIC), strain BCA 14-5: 0.5 µg/mL
[7]; clinical isolate BCA 14-6
  Anti-bacterial activity (MIC), strain BCA 14-6: 1 µg/mL
[7]; clinical isolate BCA 14-7
  Anti-bacterial activity (MIC), strain BCA 14-7: 0.5 µg/mL
[7]; clinical isolate BCA 14-8
  Anti-bacterial activity (MIC), strain BCA 14-8: 1 µg/mL
[7]; clinical isolate BCA 14-10
  Anti-bacterial activity (MIC), strain BCA 14-10: 0.5 µg/mL
[8]; clinical isolate SPN 16-2
  Anti-bacterial activity (MIC), strain SPN 16-2: 8 µg/mL
[8]; clinical isolate SPN 16-4
  Anti-bacterial activity (MIC), strain SPN 16-4: 0.5 µg/mL
[9]; clinical isolate MSSA 15-3
  Anti-bacterial activity (MIC), strain MSSA 15-3: 0.25 µg/mL
[9]; clinical isolate MSSA 15-4
  Anti-bacterial activity (MIC), strain MSSA 15-4: 0.125 µg/mL
[9]; clinical isolate MSSA 15-5
  Anti-bacterial activity (MIC), strain MSSA 15-5: 0.06 µg/mL
[9]; clinical isolate MSSA 15-6
  Anti-bacterial activity (MIC), strain MSSA 15-6: 0.5 µg/mL
[10]; Homo sapiens, HCT-116, 72 h, read-out: HCT116 inhibition rate/%
  inhibition at 30 µM: > 50%
[10]; 30 µM
  HCT116 inhibition rate/%: 65%
[11]
  inhibition at 30 µM: 44%
[12]
  inhibition at 30 µM: 40%
[13]; Homo sapiens, Bel-7402, 72 h
  inhibition at 30 µM: > 50%
[13]; 72 hours, 30 µM
  Inhibition of proliferation, Liver cancer BEL-7402: 68%
